# Results: the NIST ThermoML archive (doi:10.1021/je700339f)
# Numbers after ± are expanded uncertainties.
# Assay: xn = mol fraction of the nth substance listed
# Settings: 298 K, Liquid
compound,measurement,setting,value
"ClCCCl [1,2-dichloroethane] + CC(=O)N(C)C",mass density,"10000 kPa, x2 = 0.4999",1084.8 ± 6.5 kg/m3
same,mass density,"10000 kPa, x2 = 0.6007",1054.2 ± 6.3 kg/m3
same,mass density,"10000 kPa, x2 = 0.7008",1024.8 ± 6.1 kg/m3
same,mass density,"10000 kPa, x2 = 0.7988",996.9 ± 5.9 kg/m3
same,mass density,"10000 kPa, x2 = 0.8997",969.4 ± 5.8 kg/m3
same,mass density,"10500 kPa, x2 = 0.0977",1219.4 ± 7.4 kg/m3
same,mass density,"10500 kPa, x2 = 0.2003",1183.3 ± 7.2 kg/m3
same,mass density,"10500 kPa, x2 = 0.2988",1149.8 ± 7 kg/m3
same,mass density,"10500 kPa, x2 = 0.4022",1116.1 ± 6.8 kg/m3
same,mass density,"10500 kPa, x2 = 0.4999",1085.2 ± 6.5 kg/m3
same,mass density,"10500 kPa, x2 = 0.6007",1054.5 ± 6.3 kg/m3
same,mass density,"10500 kPa, x2 = 0.7008",1025.2 ± 6.1 kg/m3
same,mass density,"10500 kPa, x2 = 0.7988",997.2 ± 5.9 kg/m3
same,mass density,"10500 kPa, x2 = 0.8997",969.6 ± 5.8 kg/m3
same,mass density,"11000 kPa, x2 = 0.0977",1219.9 ± 7.4 kg/m3
same,mass density,"11000 kPa, x2 = 0.2003",1183.7 ± 7.2 kg/m3
same,mass density,"11000 kPa, x2 = 0.2988",1150.3 ± 7 kg/m3
same,mass density,"11000 kPa, x2 = 0.4022",1116.5 ± 6.8 kg/m3
same,mass density,"11000 kPa, x2 = 0.4999",1085.6 ± 6.5 kg/m3
same,mass density,"11000 kPa, x2 = 0.6007",1054.8 ± 6.3 kg/m3
same,mass density,"11000 kPa, x2 = 0.7008",1025.5 ± 6.1 kg/m3
same,mass density,"11000 kPa, x2 = 0.7988",997.6 ± 5.9 kg/m3
same,mass density,"11000 kPa, x2 = 0.8997",970 ± 5.8 kg/m3
same,mass density,"11500 kPa, x2 = 0.0977",1220.3 ± 7.4 kg/m3
same,mass density,"11500 kPa, x2 = 0.2003",1184.2 ± 7.2 kg/m3
same,mass density,"11500 kPa, x2 = 0.2988",1150.7 ± 7 kg/m3
same,mass density,"11500 kPa, x2 = 0.4022",1116.9 ± 6.8 kg/m3
same,mass density,"11500 kPa, x2 = 0.4999",1085.9 ± 6.5 kg/m3
same,mass density,"11500 kPa, x2 = 0.6007",1055.2 ± 6.3 kg/m3
same,mass density,"11500 kPa, x2 = 0.7008",1025.8 ± 6.1 kg/m3
same,mass density,"11500 kPa, x2 = 0.7988",997.9 ± 5.9 kg/m3
same,mass density,"11500 kPa, x2 = 0.8997",970.3 ± 5.8 kg/m3
same,mass density,"11900 kPa, x2 = 0.4999",1086.2 ± 6.5 kg/m3
same,mass density,"12000 kPa, x2 = 0.0977",1220.8 ± 7.4 kg/m3
same,mass density,"12000 kPa, x2 = 0.2003",1184.6 ± 7.3 kg/m3
same,mass density,"12000 kPa, x2 = 0.2988",1151.1 ± 7 kg/m3
same,mass density,"12000 kPa, x2 = 0.4022",1117.2 ± 6.8 kg/m3
same,mass density,"12000 kPa, x2 = 0.6007",1055.5 ± 6.3 kg/m3
same,mass density,"12000 kPa, x2 = 0.7008",1026.1 ± 6.1 kg/m3
same,mass density,"12000 kPa, x2 = 0.7988",998.2 ± 5.9 kg/m3
same,mass density,"12000 kPa, x2 = 0.8997",970.6 ± 5.8 kg/m3
same,mass density,"12500 kPa, x2 = 0.0977",1221.2 ± 7.4 kg/m3
same,mass density,"12500 kPa, x2 = 0.2003",1185 ± 7.3 kg/m3
same,mass density,"12500 kPa, x2 = 0.2988",1151.5 ± 7 kg/m3
same,mass density,"12500 kPa, x2 = 0.4022",1117.6 ± 6.8 kg/m3
same,mass density,"12500 kPa, x2 = 0.4999",1086.6 ± 6.6 kg/m3
same,mass density,"12500 kPa, x2 = 0.6007",1055.8 ± 6.3 kg/m3
same,mass density,"12500 kPa, x2 = 0.7008",1026.5 ± 6.1 kg/m3
same,mass density,"12500 kPa, x2 = 0.7988",998.5 ± 5.9 kg/m3
same,mass density,"12500 kPa, x2 = 0.8997",970.9 ± 5.8 kg/m3
same,mass density,"13000 kPa, x2 = 0.0977",1221.6 ± 7.4 kg/m3
same,mass density,"13000 kPa, x2 = 0.2003",1185.4 ± 7.3 kg/m3
same,mass density,"13000 kPa, x2 = 0.2988",1151.9 ± 7 kg/m3
same,mass density,"13000 kPa, x2 = 0.4022",1118 ± 6.8 kg/m3
same,mass density,"13000 kPa, x2 = 0.4999",1087 ± 6.6 kg/m3
same,mass density,"13000 kPa, x2 = 0.6007",1056.2 ± 6.3 kg/m3
same,mass density,"13000 kPa, x2 = 0.7008",1026.8 ± 6.1 kg/m3
same,mass density,"13000 kPa, x2 = 0.7988",998.8 ± 5.9 kg/m3
same,mass density,"13000 kPa, x2 = 0.8997",971.2 ± 5.8 kg/m3
same,mass density,"13500 kPa, x2 = 0.0977",1222 ± 7.4 kg/m3
same,mass density,"13500 kPa, x2 = 0.2003",1185.8 ± 7.3 kg/m3
same,mass density,"13500 kPa, x2 = 0.2988",1152.2 ± 7 kg/m3
same,mass density,"13500 kPa, x2 = 0.4022",1118.4 ± 6.8 kg/m3
same,mass density,"13500 kPa, x2 = 0.4999",1087.3 ± 6.6 kg/m3
same,mass density,"13500 kPa, x2 = 0.6007",1056.5 ± 6.3 kg/m3
same,mass density,"13500 kPa, x2 = 0.7008",1027.1 ± 6.1 kg/m3
same,mass density,"13500 kPa, x2 = 0.7988",999.2 ± 5.9 kg/m3
same,mass density,"13500 kPa, x2 = 0.8997",971.5 ± 5.9 kg/m3
same,mass density,"14000 kPa, x2 = 0.0977",1222.4 ± 7.4 kg/m3
same,mass density,"14000 kPa, x2 = 0.2003",1186.3 ± 7.3 kg/m3
same,mass density,"14000 kPa, x2 = 0.2988",1152.6 ± 7 kg/m3
same,mass density,"14000 kPa, x2 = 0.4022",1118.7 ± 6.8 kg/m3
same,mass density,"14000 kPa, x2 = 0.4999",1087.7 ± 6.6 kg/m3
same,mass density,"14000 kPa, x2 = 0.6007",1056.8 ± 6.3 kg/m3
same,mass density,"14000 kPa, x2 = 0.7008",1027.4 ± 6.1 kg/m3
same,mass density,"14000 kPa, x2 = 0.7988",999.4 ± 6 kg/m3
same,mass density,"14000 kPa, x2 = 0.8997",971.7 ± 5.8 kg/m3
same,mass density,"14500 kPa, x2 = 0.0977",1222.9 ± 7.4 kg/m3
same,mass density,"14500 kPa, x2 = 0.2003",1186.7 ± 7.3 kg/m3
same,mass density,"14500 kPa, x2 = 0.2988",1153 ± 7 kg/m3
same,mass density,"14500 kPa, x2 = 0.4022",1119.1 ± 6.8 kg/m3
same,mass density,"14500 kPa, x2 = 0.4999",1088 ± 6.6 kg/m3
same,mass density,"14500 kPa, x2 = 0.6007",1057.1 ± 6.3 kg/m3
same,mass density,"14500 kPa, x2 = 0.7008",1027.8 ± 6.1 kg/m3
same,mass density,"14500 kPa, x2 = 0.7988",999.7 ± 6 kg/m3
same,mass density,"14500 kPa, x2 = 0.8997",972 ± 5.9 kg/m3
same,mass density,"14900 kPa, x2 = 0.0977",1223.2 ± 7.4 kg/m3
same,mass density,"15000 kPa, x2 = 0.2003",1187.1 ± 7.3 kg/m3
same,mass density,"15000 kPa, x2 = 0.2988",1153.4 ± 7 kg/m3
same,mass density,"15000 kPa, x2 = 0.4022",1119.4 ± 6.8 kg/m3
same,mass density,"15000 kPa, x2 = 0.4999",1088.4 ± 6.6 kg/m3
same,mass density,"15000 kPa, x2 = 0.6007",1057.5 ± 6.4 kg/m3
